{"source": "patent US12661405B2", "about": "“Protected HDAC (histone deacetylase) inhibitors” (LIGHTOX LIMITED, priority 2021, dated 2026)", "key": {"HaCaT keratinocytes": {"system": "HaCaT keratinocytes", "experiment": "Fluorescein diacetate cellular viability assay", "type": "cell-based", "settings": "Homo sapiens, light or radiation study, read after 24 h", "procedure": "A fluorescein diacetate cellular viability assay measuring the viability of HaCaT keratinocytes in response to treatment with compound 92 without irradiation (no light) and when irradiated (Light) was carried out as follows:\nHaCaT keratinocyte cells were seeded in two 96 well plates and incubated for 24 h at 37° C. 5% CO2. The incubating media was removed and compound 92 was added at a range of concentrations, along with a dimethyl sulfoxide (DMSO) control, before the cells were incubated for one hour at 37° C. 5% CO2, whereupon one plate was irradiated at 405 nm for 5 min (72 mW/cm^2). Both plates were then incubated at 37° C. 5% CO2 for 24 h. The media was removed, and cells were washed with 1× phosphate buffered saline (PBS), then fluorescein diacetate (FDA) was added, and the cells were incubated at RT, in the dark, for 10 min. The fluorescein diacetate stain was then removed, and cells were washed with 1× phosphate buffered saline. The plates were read at 485/520 nm to determine cell viability at differing treatment concentrations of compound 92 with and without light exposure."}, "HDAC enzymes": {"system": "HDAC enzymes", "experiment": "Immunofluorescence imaging with anti-acetyl-H3 primary antibody (acetylated H3 histones)", "type": "cell-based", "settings": "HaCaT keratinocytes, compound at 5 μM", "procedure": "HaCaT or SCC-4 cells were seeded at 50,000 cells per well in sterile coverslip containing 6-well plates. The next day, cells were treated with the compound of interest for 30 minutes before “Light” treated cells were irradiated. The following day, cells were then fixed using 4% PFA, permeabilised using Triton X-100/Tween 20, blocked in BSA/goat serum (dependent on the antibodies) and stained with primary then secondary antibodies before coverslips were mounted on slides and imaged on a Zeiss LSCM 880.\nImmunofluorescence imaging of HaCaT keratinocytes treated with compound 92 (5 μM) and ethanol (EtOH), and co-treated with an anti-acetyl-H3 primary antibody that detects the presence of acetylated H3 histones was carried out as follows:\n[…] Cells were washed in phosphate buffered saline then fixed in 4% PFA. Cells were washed again with phosphate buffered saline before blocking and permeabilization with 0.3% triton 100-X/5% goat serum in phosphate buffered saline for 60 min. Cells were then washed with phosphate buffered saline and anti-acetyl-histone 3 antibody was added and incubated overnight at 4° C. Second antibody (Alexa-594 anti-rabbit) was added for 45 min before cells were washed again and mounted for imaging.\nThis delayed behaviour is indicative of an initial lag phase as compound 92 is enzymatically metabolised to the active form."}}, "note": "Like-named read-outs stand apart in the source and are kept apart here."}
{"smiles": "COC(=O)/C=C/c1ccc(C#Cc2cnc(N3CCN(C(=O)CCCCCCC(=O)NOC(C)=O)CC3)s2)cn1", "note": "[compound 92, Methyl (2E)-3-(5-{2-[2-(4-{7-[(acetyloxy)carbamoyl]heptanoyl}piperazin-1-yl)-1,3-thiazol-5-yl]ethynyl}pyridin-2-yl)prop-2-enoate]", "values": [{"measurement": "IC50", "setting": "HaCaT keratinocytes; 1 h treatment, irradiated at 405 nm for 5 min (72 mW/cm^2), read-out: IC50 cell viability, light activation", "result": 0.69, "unit": "µM"}, {"measurement": "IC50", "setting": "HaCaT keratinocytes; no irradiation, read-out: IC50 cell viability, without light activation", "result": 5.5, "unit": "µM"}, {"measurement": "Acetylated H3 build-up (nuclear ring phenotype) after one hour", "setting": "HDAC enzymes; one hour", "result": "characteristic nuclear ring phenotype"}, {"measurement": "Acetylated H3 build-up (nuclear ring phenotype) after ten minutes", "setting": "HDAC enzymes; ten minutes", "result": "limited activity"}]}
